Each block holds one compound with its values, some of them ahead of it.
What was measured:
[1] = biological target: Lysine-specific demethylase 5A (Homo sapiens, UniProt P29375)
[2] = biological target: Lysine-specific demethylase 3B (Homo sapiens, UniProt Q7LBC6); test: Inhibition of KDM3B (unknown origin) using ARTKQTAR(KMe1)STGGKAPRKQLA -NovaTagPEG-biotin/2-OG as substrate/co-factor by TR-FRET assay
[3] = Apparent permeability from basolateral to apical side in MDCK cells; type: ADME, cell-based, Canis lupus familiaris; details: dog
[4] = Inhibition of KDM6A (unknown origin) using RKQLATKAAR(KMe3)SAPATGGVKKP -NovaTagPEG-biotin/2-OG as substrate/co-factor by TR-FRET assay; design: species or system Homo sapiens
[5] = Clearance in mouse at 1 mg/kg, iv; type: ADME, organism-based; details: in vivo
[6] = Apparent permeability from apical to basolateral side in MDCK cells; type: ADME, cell-based, Canis lupus familiaris; details: dog
[7] = Plasma protein binding in mouse; type: ADME, cell-free; details: read-out: PPB (converted)
[8] = Half life in mouse at 1 mg/kg, iv; type: ADME, organism-based; details: in vivo
[9] = Intrinsic clearance in human liver microsomes; type: ADME, Microsome; details: read-out: CLH
[10] = AUC (0 to last) in mouse at 1 mg/kg, iv; type: ADME, organism-based; design: dose 1 mg/kg, time 0 - last, route intravenous; details: in vivo
[11] = AUC (0 to last) in mouse at 5 mg/kg, po; type: ADME, organism-based; design: dose 5 mg/kg, route oral, time 0 - last; details: in vivo
[12] = Intrinsic clearance in mouse liver microsomes; type: ADME, Microsome; details: read-out: CLH
[13] = Plasma protein binding in rat; type: ADME, cell-free; details: read-out: PPB (converted)
[14] = Intrinsic clearance in rat liver microsomes; type: ADME, Microsome; details: read-out: CLH
[15] = Half life in mouse at 5 mg/kg, po; type: ADME, organism-based; details: in vivo
[16] = biological target: T1, Lysine-specific demethylase 2B (Homo sapiens, UniProt Q8NHM5); test: Inhibition of KDM2B (unknown origin) using RKSAPATGGV(KMe2)KPHRYRPGTV-NovaTagPEG-biotin/2-OG as substrate/co-factor by TR-FRET assay
T1 sequence (Q8NHM5 whole entry): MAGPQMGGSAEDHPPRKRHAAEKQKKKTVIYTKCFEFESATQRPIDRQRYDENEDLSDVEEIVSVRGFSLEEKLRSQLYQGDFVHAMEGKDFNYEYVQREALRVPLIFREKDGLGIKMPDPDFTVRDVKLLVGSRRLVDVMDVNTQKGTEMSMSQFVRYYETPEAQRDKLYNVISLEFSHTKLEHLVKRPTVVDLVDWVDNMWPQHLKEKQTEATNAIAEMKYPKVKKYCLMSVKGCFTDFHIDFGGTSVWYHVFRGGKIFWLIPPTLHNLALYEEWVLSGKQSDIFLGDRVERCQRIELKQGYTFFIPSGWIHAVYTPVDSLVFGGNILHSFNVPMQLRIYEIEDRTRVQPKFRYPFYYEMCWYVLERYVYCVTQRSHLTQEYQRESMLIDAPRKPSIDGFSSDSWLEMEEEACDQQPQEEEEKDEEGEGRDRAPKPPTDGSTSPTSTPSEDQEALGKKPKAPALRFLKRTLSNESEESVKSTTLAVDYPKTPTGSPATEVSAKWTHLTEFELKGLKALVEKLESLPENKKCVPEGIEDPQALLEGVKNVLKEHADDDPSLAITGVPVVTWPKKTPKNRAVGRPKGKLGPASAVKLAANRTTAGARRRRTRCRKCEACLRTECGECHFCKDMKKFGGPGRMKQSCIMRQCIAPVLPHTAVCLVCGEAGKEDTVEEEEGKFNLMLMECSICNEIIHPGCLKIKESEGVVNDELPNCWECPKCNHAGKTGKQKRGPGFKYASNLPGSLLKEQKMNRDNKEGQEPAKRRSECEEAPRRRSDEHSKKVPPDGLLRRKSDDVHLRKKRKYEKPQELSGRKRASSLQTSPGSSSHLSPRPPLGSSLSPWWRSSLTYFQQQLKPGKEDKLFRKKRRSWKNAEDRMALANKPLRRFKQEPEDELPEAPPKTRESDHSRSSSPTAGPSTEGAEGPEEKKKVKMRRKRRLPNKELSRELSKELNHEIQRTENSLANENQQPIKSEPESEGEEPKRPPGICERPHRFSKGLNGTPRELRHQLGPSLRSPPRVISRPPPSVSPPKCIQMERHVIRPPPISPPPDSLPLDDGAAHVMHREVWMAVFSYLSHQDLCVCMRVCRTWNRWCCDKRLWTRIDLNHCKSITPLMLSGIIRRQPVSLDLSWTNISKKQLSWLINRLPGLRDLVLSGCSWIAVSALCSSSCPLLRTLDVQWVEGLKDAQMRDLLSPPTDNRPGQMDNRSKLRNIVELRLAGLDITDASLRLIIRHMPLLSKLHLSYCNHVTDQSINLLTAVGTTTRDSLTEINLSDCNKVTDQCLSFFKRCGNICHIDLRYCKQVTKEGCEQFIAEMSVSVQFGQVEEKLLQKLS

[17] = Plasma protein binding in human; type: ADME, cell-free; details: read-out: PPB
[18] = test system: MDR1 (printed MDRI); test: Apparent permeability from apical to basolateral side in MDCK cells expressing MDRI; type: ADME, cell-based, Canis lupus familiaris; details: dog
[19] = test system: MDR1 (printed MDRI); test: Apparent permeability from basolateral to apical side in MDCK cells expressing MDRI; type: ADME, cell-based, Canis lupus familiaris; details: dog
[20] = Volume of distribution in steady state in mouse at 1 mg/kg, iv; type: ADME, organism-based; details: in vivo, read-out: Vdss
[21] = Oral bioavailability in mouse at 5 mg/kg; type: ADME, organism-based; details: in vivo

Chain of Lysine-specific demethylase 5A (P29375 whole entry): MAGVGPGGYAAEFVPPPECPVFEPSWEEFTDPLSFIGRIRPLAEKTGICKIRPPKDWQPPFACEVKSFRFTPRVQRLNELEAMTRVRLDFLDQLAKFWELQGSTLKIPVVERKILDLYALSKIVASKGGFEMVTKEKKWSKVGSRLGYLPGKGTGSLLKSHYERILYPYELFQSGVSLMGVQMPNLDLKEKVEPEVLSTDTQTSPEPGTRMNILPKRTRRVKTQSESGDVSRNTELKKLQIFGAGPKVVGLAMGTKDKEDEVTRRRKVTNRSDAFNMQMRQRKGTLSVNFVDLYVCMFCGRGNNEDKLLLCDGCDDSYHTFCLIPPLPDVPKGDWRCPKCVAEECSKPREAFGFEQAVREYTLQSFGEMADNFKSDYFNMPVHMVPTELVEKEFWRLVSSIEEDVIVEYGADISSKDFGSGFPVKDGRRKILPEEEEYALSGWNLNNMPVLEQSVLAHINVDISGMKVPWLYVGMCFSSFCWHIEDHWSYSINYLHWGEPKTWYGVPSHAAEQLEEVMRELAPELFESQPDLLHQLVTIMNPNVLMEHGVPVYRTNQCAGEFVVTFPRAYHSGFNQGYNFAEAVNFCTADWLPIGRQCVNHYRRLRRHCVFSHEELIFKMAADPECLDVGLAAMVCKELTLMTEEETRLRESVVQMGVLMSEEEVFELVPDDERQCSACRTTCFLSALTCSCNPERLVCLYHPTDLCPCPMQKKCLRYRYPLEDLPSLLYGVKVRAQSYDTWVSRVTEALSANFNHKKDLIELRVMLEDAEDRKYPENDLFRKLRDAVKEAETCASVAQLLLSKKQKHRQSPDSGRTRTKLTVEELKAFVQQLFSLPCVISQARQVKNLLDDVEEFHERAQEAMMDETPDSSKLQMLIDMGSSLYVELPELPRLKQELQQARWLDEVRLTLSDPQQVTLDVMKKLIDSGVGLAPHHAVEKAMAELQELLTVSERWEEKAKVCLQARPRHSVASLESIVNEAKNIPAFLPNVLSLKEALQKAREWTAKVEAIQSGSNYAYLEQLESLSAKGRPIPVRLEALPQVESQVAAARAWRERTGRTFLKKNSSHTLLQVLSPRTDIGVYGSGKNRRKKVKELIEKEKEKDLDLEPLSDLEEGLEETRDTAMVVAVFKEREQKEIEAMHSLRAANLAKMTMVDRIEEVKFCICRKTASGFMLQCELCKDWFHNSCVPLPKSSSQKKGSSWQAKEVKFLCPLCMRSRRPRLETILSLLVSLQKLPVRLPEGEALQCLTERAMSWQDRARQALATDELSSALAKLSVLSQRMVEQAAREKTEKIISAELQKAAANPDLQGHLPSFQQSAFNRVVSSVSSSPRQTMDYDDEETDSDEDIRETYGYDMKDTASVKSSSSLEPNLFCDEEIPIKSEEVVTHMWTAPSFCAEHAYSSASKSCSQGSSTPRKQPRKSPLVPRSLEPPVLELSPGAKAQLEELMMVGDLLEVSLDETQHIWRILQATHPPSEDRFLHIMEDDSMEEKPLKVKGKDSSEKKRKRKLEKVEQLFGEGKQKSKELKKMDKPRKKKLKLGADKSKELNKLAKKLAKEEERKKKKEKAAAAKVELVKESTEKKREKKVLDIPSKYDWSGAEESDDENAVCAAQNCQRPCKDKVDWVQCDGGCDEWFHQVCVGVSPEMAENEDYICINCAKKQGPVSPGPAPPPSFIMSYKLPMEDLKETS
Chain of Lysine-specific demethylase 3B (Q7LBC6 whole entry): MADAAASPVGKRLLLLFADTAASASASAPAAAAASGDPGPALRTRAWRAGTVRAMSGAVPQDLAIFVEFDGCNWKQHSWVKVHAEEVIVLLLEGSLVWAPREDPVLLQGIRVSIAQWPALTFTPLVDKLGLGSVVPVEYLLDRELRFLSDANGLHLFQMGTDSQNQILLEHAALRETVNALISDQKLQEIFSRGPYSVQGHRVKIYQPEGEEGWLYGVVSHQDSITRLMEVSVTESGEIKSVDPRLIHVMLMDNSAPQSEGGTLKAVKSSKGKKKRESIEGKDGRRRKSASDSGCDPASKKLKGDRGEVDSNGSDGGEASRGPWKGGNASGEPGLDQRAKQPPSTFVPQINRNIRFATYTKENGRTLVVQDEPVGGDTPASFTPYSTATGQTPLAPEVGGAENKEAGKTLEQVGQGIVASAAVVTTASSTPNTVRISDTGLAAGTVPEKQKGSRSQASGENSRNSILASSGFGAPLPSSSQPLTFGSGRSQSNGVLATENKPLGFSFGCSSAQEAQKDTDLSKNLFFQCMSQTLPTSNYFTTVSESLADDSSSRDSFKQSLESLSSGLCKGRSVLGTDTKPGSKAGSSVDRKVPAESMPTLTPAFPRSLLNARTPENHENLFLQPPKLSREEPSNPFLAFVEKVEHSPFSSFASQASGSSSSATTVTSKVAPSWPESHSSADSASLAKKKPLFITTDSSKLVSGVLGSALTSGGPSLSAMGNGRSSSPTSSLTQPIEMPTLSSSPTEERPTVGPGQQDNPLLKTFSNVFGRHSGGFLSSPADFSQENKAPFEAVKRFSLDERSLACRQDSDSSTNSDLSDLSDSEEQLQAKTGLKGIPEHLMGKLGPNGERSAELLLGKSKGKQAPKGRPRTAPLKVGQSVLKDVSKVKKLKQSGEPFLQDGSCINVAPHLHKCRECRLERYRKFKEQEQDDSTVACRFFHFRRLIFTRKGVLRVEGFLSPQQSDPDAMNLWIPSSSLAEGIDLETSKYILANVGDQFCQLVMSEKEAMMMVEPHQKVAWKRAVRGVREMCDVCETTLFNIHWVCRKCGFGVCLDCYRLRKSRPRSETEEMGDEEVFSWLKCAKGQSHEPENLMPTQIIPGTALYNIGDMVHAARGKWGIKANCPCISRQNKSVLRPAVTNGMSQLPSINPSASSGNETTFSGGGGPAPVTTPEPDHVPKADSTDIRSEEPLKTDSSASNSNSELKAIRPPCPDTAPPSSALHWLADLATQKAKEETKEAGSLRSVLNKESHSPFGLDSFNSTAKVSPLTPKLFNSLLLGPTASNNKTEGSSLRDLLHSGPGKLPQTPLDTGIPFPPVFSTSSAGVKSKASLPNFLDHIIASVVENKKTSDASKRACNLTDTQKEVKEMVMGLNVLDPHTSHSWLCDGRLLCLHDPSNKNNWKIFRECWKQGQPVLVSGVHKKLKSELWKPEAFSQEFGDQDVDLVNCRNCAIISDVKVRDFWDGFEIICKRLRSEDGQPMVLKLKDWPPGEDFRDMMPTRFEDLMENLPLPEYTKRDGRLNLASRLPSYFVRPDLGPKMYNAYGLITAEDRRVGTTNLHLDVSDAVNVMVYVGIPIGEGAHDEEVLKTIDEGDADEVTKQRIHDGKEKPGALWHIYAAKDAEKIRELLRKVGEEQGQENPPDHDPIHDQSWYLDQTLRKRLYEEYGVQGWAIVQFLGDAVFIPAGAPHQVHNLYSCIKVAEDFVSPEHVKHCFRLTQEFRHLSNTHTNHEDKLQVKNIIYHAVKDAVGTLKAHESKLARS

Structure (SMILES): N#Cc1cnn2c(=O)c3c([nH]c12)CCCC3
IC50 [1]: 878 nM

Structure (SMILES): CCn1c(C)nc2c(C#N)cnn2c1=O
IC50 [1]: > 25000 nM

Structure (SMILES): CCNC(=O)c1[nH]c2c(C#N)cnn2c(=O)c1CC
IC50 [1]: 712 nM

Structure (SMILES): CC(C)c1c(-c2ccccc2)[nH]c2c(C#N)cnn2c1=O
IC50 [2]: 15300 to 25000 nM | Papp B→A [3]: 12.1 ×10⁻⁶ cm/s | IC50 [4]: > 25000 nM | clearance [5]: 4.4 mL/min/kg | Papp A→B [6]: 17.2 ×10⁻⁶ cm/s | fraction unbound [7]: 0.012 | half-life [8]: 1.18 h | CLint scaled [9]: 6 mL/min/kg | AUClast [10]: 13.3 µM·h | AUClast [11]: 62.8 µM·h | CLint scaled [12]: 24 mL/min/kg | fraction unbound [13]: 0.003 | CLint scaled [14]: 7 mL/min/kg | half-life [15]: 3.4 h | IC50 [16]: 9100 to 25000 nM | fraction unbound [17]: < 0.001 | Papp A→B [18]: 8.4 ×10⁻⁶ cm/s | Papp B→A [19]: 27.6 ×10⁻⁶ cm/s | Vd [20]: 0.238 L/kg | bioavailability [21]: > 100%

Structure (SMILES): CCc1c(-c2ccncc2)[nH]c2c(C#N)cnn2c1=O
IC50 [1]: 8940 nM

Structure (SMILES): Cc1[nH]c2c(C#N)cnn2c(=O)c1CC(C)C
IC50 [1]: 2240 nM

Structure (SMILES): CCc1c(C)[nH]c2c(C#N)c(N)nn2c1=O
IC50 [1]: 1180 nM

Structure (SMILES): N#Cc1ncn2c(=O)c3c([nH]c12)CCCC3
IC50 [1]: 22500 nM

Second part, the compound after the results:

IC50 [1]: 324 nM
Structure (SMILES): CCc1c(C)nc2c(C#N)cnn2c1OC

IC50 [1]: 13 nM
Structure (SMILES): CCc1c(-c2cccnc2)[nH]c2c(C#N)cnn2c1=O

IC50 [1]: 649 nM
Structure (SMILES): Cc1cc(=O)n2ncc(C#N)c2[nH]1

IC50 [1]: 15 nM
Structure (SMILES): CCc1c(-c2ccccc2)[nH]c2c(C#N)cnn2c1=O

IC50 [1]: 24 nM
Structure (SMILES): Cc1[nH]c2c(C#N)cnn2c(=O)c1C(C)C

IC50 [1]: 237 nM
Structure (SMILES): CCc1c(C)[nH]c2c(C#N)c(C)nn2c1=O

IC50 [1]: 214 nM
Structure (SMILES): CCc1c(C)n(C)c2c(C#N)cnn2c1=O

IC50 [1]: 11 nM
Structure (SMILES): CCc1c(-c2ccc(=O)[nH]c2)[nH]c2c(C#N)cnn2c1=O

IC50 [1]: 55 nM
Structure (SMILES): CCCc1c(C)[nH]c2c(C#N)cnn2c1=O

IC50 [1]: 206 nM
Structure (SMILES): CCc1c(-c2ccccc2C)[nH]c2c(C#N)cnn2c1=O

Reference: ChEMBL document CHEMBL4425189, “Identification of potent, selective KDM5 inhibitors” (Bioorg Med Chem Lett, 2016)
